Results taken from patent US20220249440A1, “MUSCLE RE[…]” (SATO PHARMACEUTICAL CO., LTD., priority 2019, published 2022).

Key:
[1] = tested on: muscle-damaged model animal (CTX administered to tibialis anterior muscle); assay: Muscle regeneration in cardiotoxin (CTX) muscle-damaged model animal; area of regenerated single muscle fibers with central nuclei in tibialis anterior muscle; assay type: in vivo, C57BL/6 male mice; conditions: 10 μL intramuscular into tibialis anterior muscle once a day from day before CTX to 6 day after CTX; for increase in the mean muscle fiber area of regenerated muscle as compared with the Vehicle administration group: 7 days after CTX, P<0.0001; for histogram of the regenerated single-muscle fiber area vs Vehicle administration group: muscle collected 7 days after CTX
Experimental: Seven-week old C57BL/6 male mice (CLEA Japan, Inc.) were purchased, and used for experiment at the age of 8 weeks.
A model animal to which muscle damage had been caused by administration of snake venom cardiotoxin (CTX) was used. The muscle-damaged model animal has been widely used in studies on the regeneration from muscle damage.
Under the anesthesia with isoflurane, 50 μL of 10 μM CTX was administered to the tibialis anterior muscle of the right hindlimb of the mouse. After 7 days of the administration of CTX, the tibialis anterior muscle was collected by dissection, and supplied to the preparation of a muscle tissue section.
Immediately after the collection of the tibialis anterior muscle, the tibialis anterior muscle was immersed in isopentane cooled with liquid nitrogen and was rapidly frozen. The frozen muscle tissue was cut into slices each having a thickness of 10 μm by using a cryostat (Leica Biosystems), and the slice was attached onto an antistripping coated slide glass (Matsunami Glass Ind., Ltd).
A muscle tissue section was sufficiently air dried for 30 minutes under room temperature. After that, the muscle tissue section was fixed by immersing it in acetone cooled to −30° C. and treating at −30° C. for 20 minutes. The fixed section was air dried once and washed with PBS. Then the section was blocked by dropwisely adding a blocking reagent (Blocking One, NACALAI TESQUE, INC.) to the section and being subjected to the blocking treatment for 1 hour. Next, a primary antibody (Anti-Laminin-2 (α-2 Chain) antibody, Rat monoclonal (Sigma-Aldrich)) obtained by being diluted 500 times with the blocking reagent was added dropwise, and the reaction was conducted at overnight at 4° C. Since laminin to which a primary antibody binds is a protein expressed in all muscle cells, the primary antibody was used in this experiment in order to measure the area of individual muscle cells in a section. The muscle tissue section after the reaction with the primary antibody was washed with PBS, and then was reacted for 1 hour with a secondary antibody (CF 488A Goat Anti-Rat IgG (H+L) (Biotium)) obtained by being diluted 500 times with the blocking reagent. The secondary antibody that is an anti-rat antibody conjugated with a fluorescent dye binds to the primary antibody, and stains the laminin. The muscle tissue section after the reaction with the secondary antibody was washed with PBS, and sealed by using “[…] Hard⋅Set with DAPI” (Vector), and then the fluorescence observation was performed with an inverted microscope FSX100 (OLYMPUS). The “[…] Hard⋅Set with DAPI” was used for staining the central nucleus of muscle cells.
The muscle regeneration was evaluated on the basis of the image data taken from the fluorescence observation. In this experiment, muscle cells each having a central nucleus (single muscle fibers having central nuclei) were used as an indicator for regenerated muscle. After the image data was taken into image analysis software ImageJ (NIH), a muscle cell having a central nucleus was extracted. The cross-sectional area of the extracted individual cells was measured on the basis of the cell membrane stained with laminin. For the area measurement, “Analyze Particles” that is an add-in analysis program on ImageJ was used. The measurement results were shown as a distribution chart (histogram) of the area and number of regenerated single-muscle fibers, and as an average value of the cross-sectional areas of all the regenerated single muscle fibers (mean muscle fiber area).

5-HT2B receptor = 5-HT2B receptor (Homo sapiens, UniProt P41595); conditions: cited literature: Br. J. Pharmacol. 128(1):13-20, 1999; J. Pharmacol. Exp. Ther. 347(3):645-59, 2013; cited from earlier work
[2] = 5 mM in PBS with 5% dimethyl sulfoxide

Sequence of 5-HT2B receptor (P41595 whole entry): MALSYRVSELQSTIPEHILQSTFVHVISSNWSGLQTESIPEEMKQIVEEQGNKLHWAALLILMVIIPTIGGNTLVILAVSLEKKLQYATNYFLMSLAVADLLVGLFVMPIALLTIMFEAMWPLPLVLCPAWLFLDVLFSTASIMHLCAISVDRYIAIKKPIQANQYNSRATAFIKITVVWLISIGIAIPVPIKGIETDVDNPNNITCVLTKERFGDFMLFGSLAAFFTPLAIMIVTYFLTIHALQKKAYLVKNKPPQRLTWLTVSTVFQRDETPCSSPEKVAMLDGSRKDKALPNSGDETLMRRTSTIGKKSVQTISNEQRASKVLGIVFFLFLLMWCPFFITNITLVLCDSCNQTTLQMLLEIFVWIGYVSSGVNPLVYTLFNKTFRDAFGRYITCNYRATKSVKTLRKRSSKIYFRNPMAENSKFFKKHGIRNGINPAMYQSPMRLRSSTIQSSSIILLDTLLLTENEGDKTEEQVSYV

SMILES	increase in the mean muscle fiber area of regenerated muscle as compared with the Vehicle administration group [1, 2]	histogram of the regenerated single-muscle fiber area vs Vehicle administration group [1, 2]	5-HT2B receptor agonist activity (known from literature) (5-HT2B receptor)	increase in the mean muscle fiber area of regenerated muscle as compared with the Vehicle administration group ([1]; 10 mM in PBS)	histogram of the regenerated single-muscle fiber area vs Vehicle administration group ([1]; 10 mM in PBS)
CC(N)Cc1c[nH]c2ccc(OCc3cccs3)cc12 (stereo not drawn) [BW723C86, 1-(5-(thiophen-2-ylmethoxy)-1H-indol-3-yl)propan-2-amine]	9.5%	shifted to the right side	selective 5-HT2B receptor agonist	–	–
Cn1c2c(c3ccccc31)CCNCC2 [PNU 22394, 6-methyl-1,2,3,4,5,6-hexahydroazepino[4,5-b]indole]	–	–	5-HT2B receptor agonist	8.5%	shifted to the right side
CC(N)Cc1c[nH]c2ccc(O)cc12 (stereo not drawn) [α-methyl-5-HT, 3-(2-aminopropyl)-1H-indol-5-ol]	23%	shifted to the right side	5-HT2B receptor agonist	–	–
